Assay results: ChEMBL document CHEMBL5584347, “Development of Nitric Oxide Releasing Oxoisoaporphines with Antidepressant Activities by Simultaneously Regulating MAO-A and SERT” (J Med Chem, 2024)
Activity calls are given as the source filed them. The calls are words filed in the database; no cut-off is given here.

How the values were obtained:
[1] = Toxicity in C57 mouse assessed as necrosis in kidney at 5 to 10 mg/kg administered continuously for 2 weeks by H and E staining based analysis; type: organism-based; conditions: in vivo, 336 h, dose 5-10 mg/kg
[2] = tested on: Mus musculus; test: Antidepressant activity in chronic unpredictable mild stress induced depressive C57 mouse model assessed as appearance of well arranged neuronal cells in hippocampus at 5 to 10 mg/kg administered continuously for 2 weeks post 5 weeks of chronic unpredictable mild stress by H and E staining based analysis; type: functional, organism-based; conditions: dose 5-10 mg/kg
[3] = Toxicity in C57 mouse assessed as effect on spleen size at 5 to 10 mg/kg administered continuously for 2 weeks by H and E staining based analysis; type: organism-based; conditions: in vivo, 336 h, dose 5-10 mg/kg
[4] = Toxicity in C57 mouse assessed as effect on heart size at 5 to 10 mg/kg administered continuously for 2 weeks by H and E staining based analysis; type: organism-based; conditions: in vivo, 336 h, dose 5-10 mg/kg
[5] = Toxicity in C57 mouse assessed as necrosis in lungs at 5 to 10 mg/kg administered continuously for 2 weeks by H and E staining based analysis; type: organism-based; conditions: in vivo, 336 h, dose 5-10 mg/kg
[6] = Cytotoxicity against human L02 cells incubated for 24 hrs by MTT assay; type: toxicity, cell-based
[7] = tested on: Mus musculus; test: Antidepressant activity in chronic unpredictable mild stress induced depressive C57 mouse model assessed as increase in movement at 5 to 10 mg/kg administered continuously for 2 weeks post 5 weeks of chronic unpredictable mild stress by open field test; type: functional, organism-based; conditions: dose 5-10 mg/kg
[8] = Toxicity in C57 mouse assessed as effect on heart structure at 5 to 10 mg/kg administered continuously for 2 weeks by H and E staining based analysis; type: organism-based; conditions: in vivo, 336 h, dose 5-10 mg/kg
[9] = tested on: Danio rerio; test: Antidepressant activity in reserpine-induced depressive zebrafish model assessed as increase in time spend in upper part at 0.5 to 1 uM preadministered with reserpine for 40 mins followed by compound administration and measured after 7 days by novel tank test; type: functional, organism-based; conditions: dose 0.5-1 µM, time 7.0 day
[10] = tested on: Mus musculus; test: Antidepressant activity in chronic unpredictable mild stress induced depressive C57 mouse model assessed as reduction in resting time at 5 to 10 mg/kg administered continuously for 2 weeks post 5 weeks of chronic unpredictable mild stress by forced swimming test; type: functional, organism-based; conditions: dose 5-10 mg/kg
[11] = tested on: Danio rerio; test: Antidepressant activity in reserpine-induced depressive zebrafish model assessed as increase in speed of movement at 0.5 to 1 uM preadministered with reserpine for 40 mins followed by compound administration and measured after 7 days by open field test; type: functional, organism-based; conditions: dose 0.5-1 µM, time 7.0 day
[12] = Toxicity in C57 mouse assessed as effect on liver pathology at 5 to 10 mg/kg administered continuously for 2 weeks by H and E staining based analysis; type: organism-based; conditions: in vivo, 336 h, dose 5-10 mg/kg
[13] = tested on: Danio rerio; test: Antidepressant activity in reserpine-induced depressive zebrafish model assessed as increase in speed of movement at 0.5 to 1 uM preadministered with reserpine for 40 mins followed by compound administration and measured after 7 days by novel tank test; type: functional, organism-based; conditions: dose 0.5-1 µM, time 7.0 day
[14] = Toxicity in C57 mouse assessed as effect on lung morphology at 5 to 10 mg/kg administered continuously for 2 weeks by H and E staining based analysis; type: organism-based; conditions: in vivo, 336 h, dose 5-10 mg/kg
[15] = tested on: Mus musculus; test: Antidepressant activity in chronic unpredictable mild stress induced depressive C57 mouse model assessed as reduction in fecal count at 5 to 10 mg/kg administered continuously for 2 weeks post 5 weeks of chronic unpredictable mild stress; type: functional, organism-based; conditions: dose 5-10 mg/kg
[16] = tested on: Mus musculus; test: Upregulation of 5-HT level in mouse at 10 mg/kg; type: functional, organism-based
[17] = Toxicity in C57 mouse assessed as effect on kidney morphology at 5 to 10 mg/kg administered continuously for 2 weeks by H and E staining based analysis; type: organism-based; conditions: in vivo, 336 h, dose 5-10 mg/kg
[18] = Toxicity in C57 mouse assessed as effect on lung pathology at 5 to 10 mg/kg administered continuously for 2 weeks by H and E staining based analysis; type: organism-based; conditions: in vivo, 336 h, dose 5-10 mg/kg
[19] = Cytotoxicity against rat PC-12 cells incubated for 24 hrs by MTT assay; type: toxicity, cell-based
[20] = Toxicity in C57 mouse assessed as effect on heart pathology at 5 to 10 mg/kg administered continuously for 2 weeks by H and E staining based analysis; type: organism-based; conditions: in vivo, 336 h, dose 5-10 mg/kg
[21] = Cytotoxicity against human SH-SY5Y cells incubated for 24 hrs by MTT assay; type: toxicity, cell-based
[22] = tested on: Mus musculus; test: Antidepressant activity in chronic unpredictable mild stress induced depressive C57 mouse model assessed as reduction in MAO-A activity in brain at 5 to 10 mg/kg administered continuously for 2 weeks post 5 weeks of chronic unpredictable mild stress by colorimetric analysis; type: functional, organism-based; conditions: dose 5-10 mg/kg
[23] = tested on: Mus musculus; test: Antidepressant activity in chronic unpredictable mild stress induced depressive C57 mouse model assessed as increase in number of upright movements at 5 to 10 mg/kg administered continuously for 2 weeks post 5 weeks of chronic unpredictable mild stress by open field test; type: functional, organism-based; conditions: dose 5-10 mg/kg
[24] = Toxicity in C57 mouse assessed as effect on heart morphology at 5 to 10 mg/kg administered continuously for 2 weeks by H and E staining based analysis; type: organism-based; conditions: in vivo, 336 h, dose 5-10 mg/kg
[25] = Toxicity in C57 mouse assessed as necrosis in spleen at 5 to 10 mg/kg administered continuously for 2 weeks by H and E staining based analysis; type: organism-based; conditions: in vivo, 336 h, dose 5-10 mg/kg
[26] = tested on: PC-12; test: Neuroprotective activity against corticosterone-induced cell injury in rat PC-12 cells assessed as increase in cell viability at 0.01 to 1 uM incubated for 24 hrs by CCK8 assay; type: functional, cell-based; conditions: dose 0.01-1 µM
[27] = Toxicity in zebrafish embryo assessed as morphological changes at 0.1 to 10 uM administered with compound starting from 6 hours fertilization and measured at 48 to 120 hours post fertilization; parameters: species or system Danio rerio; conditions: in vivo, dose lower 0.1 µM, time lower 42 hrs, dose upper 10 µM, time upper 114 hrs
[28] = tested on: Danio rerio; test: Antidepressant activity in reserpine-induced depressive zebrafish model assessed as reduction in immobility time at 0.5 to 1 uM preadministered with reserpine for 40 mins followed by compound administration and measured after 7 days by open field test; type: functional, organism-based; conditions: dose 0.5-1 µM, time 7.0 day
[29] = Toxicity in C57 mouse assessed as effect on kidney structure at 5 to 10 mg/kg administered continuously for 2 weeks by H and E staining based analysis; type: organism-based; conditions: in vivo, 336 h, dose 5-10 mg/kg
[30] = Toxicity in C57 mouse assessed as effect on liver structure at 5 to 10 mg/kg administered continuously for 2 weeks by H and E staining based analysis; type: organism-based; conditions: in vivo, 336 h, dose 5-10 mg/kg
[31] = tested on: Mus musculus; test: Antidepressant activity in chronic unpredictable mild stress induced depressive C57 mouse model assessed as increase in total distance traveled at 5 to 10 mg/kg administered continuously for 2 weeks post 5 weeks of chronic unpredictable mild stress by open field test; type: functional, organism-based; conditions: dose 5-10 mg/kg
[32] = tested on: Mus musculus; test: Antidepressant activity in chronic unpredictable mild stress induced depressive C57 mouse model assessed as increase in nitric oxide content in brain at 5 to 10 mg/kg administered continuously for 2 weeks post 5 weeks of chronic unpredictable mild stress by absorbance based analysis; type: functional, organism-based; conditions: dose 5-10 mg/kg
[33] = Toxicity in C57 mouse assessed as effect on lung size at 5 to 10 mg/kg administered continuously for 2 weeks by H and E staining based analysis; type: organism-based; conditions: in vivo, 336 h, dose 5-10 mg/kg
[34] = tested on: Danio rerio; test: Antidepressant activity in reserpine-induced depressive zebrafish model assessed as increase in total distance traveled at 0.5 to 1 uM preadministered with reserpine for 40 mins followed by compound administration and measured after 7 days by novel tank test; type: functional, organism-based; conditions: dose 0.5-1 µM, time 7.0 day
[35] = Toxicity in C57 mouse assessed as effect on kidney size at 5 to 10 mg/kg administered continuously for 2 weeks by H and E staining based analysis; type: organism-based; conditions: in vivo, 336 h, dose 5-10 mg/kg
[36] = Toxicity in C57 mouse assessed as effect on spleen morphology at 5 to 10 mg/kg administered continuously for 2 weeks by H and E staining based analysis; type: organism-based; conditions: in vivo, 336 h, dose 5-10 mg/kg

O=C1c2ccccc2-c2nccc3cc(OCCCO[N+](=O)[O-])cc1c23
Activity [1]: Non-Toxic
Activity [2]: Active
Activity [3]: Non-Toxic
Activity [4]: Non-Toxic
Activity [5]: Non-Toxic
IC50 at 24 h [6]: > 100 µM
Activity [7]: Active
Activity [8]: Non-Toxic
Activity [9]: Active
Activity [10]: Active
Activity [11]: Active
Activity [12]: Non-Toxic
Activity [13]: Active
Activity [14]: Non-Toxic
Activity [15]: Active
Activity [16]: Active
Activity [17]: Non-Toxic
Activity [18]: Non-Toxic
IC50 at 24 h [19]: > 10 µM
Activity [20]: Non-Toxic
IC50 at 24 h [21]: > 100 µM
Activity [22]: Active
Activity [23]: Active
Activity [24]: Non-Toxic
Activity [25]: Non-Toxic
Activity [26]: Active
Activity [27]: Non-Toxic
Activity [28]: Active
Activity [29]: Non-Toxic
Activity [30]: Non-Toxic
Activity [31]: Active
Activity [32]: Active
Activity [33]: Non-Toxic
Activity [34]: Active
Activity [35]: Non-Toxic
Activity [36]: Non-Toxic
